In PubChem BioAssay AID1963850 (Molecular Pharmacology Branch, DTP, NCI, 2024):
pIC50: −log10 of the molar value.

Tested on: 192522-019-R-J2-PDC complex tumor spheroid viability
Assay: Anticancer human tumor 192522-019-R-J2-PDC patient-derived colon adenocarcinoma cell line growth inhibition [POLQ]
Conditions: for pIC50: curve of first compound; for viability, T/C: stronger effect = lower value
Outline: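 Growth inhibition in 3D: complex spheroids (tumor PDC, HUVEC, MSC) treated with POLQ inhibitor combinations; where Cmax unknown, highest tested concentration 10 microM, except SN-38 at 1 microM.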

[1] = second compound 0.0316 µM, first compound 0.0316 µM
[2] = second compound 0.0316 µM, first compound 0.1 µM
[3] = second compound 0.0316 µM, first compound 0.316 µM
[4] = second compound 0.0316 µM, first compound 1 µM
[5] = second compound 0.0316 µM, first compound 3.16 µM
[6] = second compound 0.0316 µM, first compound 10 µM
[7] = second compound 0.1 µM, first compound 0.0316 µM
[8] = second compound 0.1 µM, first compound 0.1 µM
[9] = second compound 0.1 µM, first compound 0.316 µM
[10] = second compound 0.1 µM, first compound 1 µM
[11] = second compound 0.1 µM, first compound 3.16 µM
[12] = second compound 0.1 µM, first compound 10 µM
[13] = second compound 0.316 µM, first compound 0.0316 µM
[14] = second compound 0.316 µM, first compound 0.1 µM
[15] = second compound 0.316 µM, first compound 0.316 µM
[16] = second compound 0.316 µM, first compound 1 µM
[17] = second compound 0.316 µM, first compound 3.16 µM
[18] = second compound 0.316 µM, first compound 10 µM
[19] = second compound 1 µM, first compound 0.0316 µM
[20] = second compound 1 µM, first compound 0.1 µM
[21] = second compound 1 µM, first compound 0.316 µM
[22] = second compound 1 µM, first compound 1 µM
[23] = second compound 1 µM, first compound 3.16 µM
[24] = second compound 1 µM, first compound 10 µM
[25] = second compound 3.16 µM, first compound 0.0316 µM
[26] = second compound 3.16 µM, first compound 0.1 µM
[27] = second compound 3.16 µM, first compound 0.316 µM
[28] = second compound 3.16 µM, first compound 1 µM
[29] = second compound 3.16 µM, first compound 3.16 µM
[30] = second compound 3.16 µM, first compound 10 µM
[31] = second compound 10 µM, first compound 0.0316 µM
[32] = second compound 10 µM, first compound 0.1 µM
[33] = second compound 10 µM, first compound 0.316 µM
[34] = second compound 10 µM, first compound 1 µM
[35] = second compound 10 µM, first compound 3.16 µM
[36] = second compound 10 µM, first compound 10 µM
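Further: spheroids exposed to drugs for seven days before reading.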
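Wherever viability, T/C is given: 100% = DMSO vehicle control viability in luminescence.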

C=CC(=O)N1CCN(c2nc(=O)n(-c3c(C)ccnc3C(C)C)c3nc(-c4c(O)cccc4F)c(F)cc23)C(C)C1 (stereo unspecified) + COC1C(OC(N)=O)C(O)C(Oc2ccc3c(O)c(NC(=O)c4ccc(O)c(CC=C(C)C)c4)c(=O)oc3c2C)OC1(C)C
pIC50 (second compound 0.0316 µM): < 5.00
pIC50 (second compound 0.1 µM): < 5.00
pIC50 (second compound 0.316 µM): < 5.00
pIC50 (second compound 1 µM): < 5.00
pIC50 (second compound 3.16 µM): < 5.00
pIC50 (second compound 10 µM): < 5.00
viability, T/C [1]: 107%
viability, T/C [2]: 96.2%
viability, T/C [3]: 103%
viability, T/C [4]: 98.7%
viability, T/C [5]: 107%
viability, T/C [6]: 97%
viability, T/C [7]: 101%
viability, T/C [8]: 91.1%
viability, T/C [9]: 93.3%
viability, T/C [10]: 96.5%
viability, T/C [11]: 101%
viability, T/C [12]: 105%
viability, T/C [13]: 103%
viability, T/C [14]: 101%
viability, T/C [15]: 101%
viability, T/C [16]: 99.7%
viability, T/C [17]: 105%
viability, T/C [18]: 114%
viability, T/C [19]: 97.7%
viability, T/C [20]: 105%
viability, T/C [21]: 112%
viability, T/C [22]: 110%
viability, T/C [23]: 109%
viability, T/C [24]: 121%
viability, T/C [25]: 103%
viability, T/C [26]: 105%
viability, T/C [27]: 109%
viability, T/C [28]: 106%
viability, T/C [29]: 117%
viability, T/C [30]: 102%
viability, T/C [31]: 104%
viability, T/C [32]: 92.5%
viability, T/C [33]: 105%
viability, T/C [34]: 96.8%
viability, T/C [35]: 118%
viability, T/C [36]: 107%

CCc1cc2c(N3CCc4c(cc(Cn5ccnc5)cc4-c4cn(C)nc4C(F)(F)F)C3=O)cc(C)nc2c(OC)n1 + COC1C(OC(N)=O)C(O)C(Oc2ccc3c(O)c(NC(=O)c4ccc(O)c(CC=C(C)C)c4)c(=O)oc3c2C)OC1(C)C
pIC50 (second compound 0.0316 µM): < 5.00
pIC50 (second compound 0.1 µM): < 5.00
pIC50 (second compound 0.316 µM): < 5.00
pIC50 (second compound 1 µM): < 5.00
pIC50 (second compound 3.16 µM): < 5.00
pIC50 (second compound 10 µM): < 5.00
viability, T/C [1]: 95.6%
viability, T/C [2]: 90.6%
viability, T/C [3]: 90.5%
viability, T/C [4]: 82.8%
viability, T/C [5]: 79.2%
viability, T/C [6]: 60.7%
viability, T/C [7]: 94.2%
viability, T/C [8]: 94.3%
viability, T/C [9]: 81.5%
viability, T/C [10]: 82.4%
viability, T/C [11]: 72.3%
viability, T/C [12]: 67.4%
viability, T/C [13]: 101%
viability, T/C [14]: 96.7%
viability, T/C [15]: 96.1%
viability, T/C [16]: 81.6%
viability, T/C [17]: 82.6%
viability, T/C [18]: 69.7%
viability, T/C [19]: 99%
viability, T/C [20]: 96.8%
viability, T/C [21]: 85.1%
viability, T/C [22]: 84.3%
viability, T/C [23]: 68.5%
viability, T/C [24]: 72.4%
viability, T/C [25]: 95.6%
viability, T/C [26]: 98.8%
viability, T/C [27]: 87.1%
viability, T/C [28]: 83.9%
viability, T/C [29]: 74.6%
viability, T/C [30]: 66.2%
viability, T/C [31]: 102%
viability, T/C [32]: 91.4%
viability, T/C [33]: 87.5%
viability, T/C [34]: 80.6%
viability, T/C [35]: 88.9%
viability, T/C [36]: 73.4%

COc1cc2cc(C(=O)CCC(=O)O)sc2cc1OC + COC1C(OC(N)=O)C(O)C(Oc2ccc3c(O)c(NC(=O)c4ccc(O)c(CC=C(C)C)c4)c(=O)oc3c2C)OC1(C)C
pIC50 (second compound 0.0316 µM): < 5.00
pIC50 (second compound 0.1 µM): < 5.00
pIC50 (second compound 0.316 µM): < 5.00
pIC50 (second compound 1 µM): < 5.00
pIC50 (second compound 3.16 µM): < 5.00
pIC50 (second compound 10 µM): < 5.00
viability, T/C [1]: 101%
viability, T/C [2]: 94.3%
viability, T/C [3]: 97.7%
viability, T/C [4]: 101%
viability, T/C [5]: 102%
viability, T/C [6]: 91.9%
viability, T/C [7]: 110%
viability, T/C [8]: 98%
viability, T/C [9]: 96.9%
viability, T/C [10]: 97%
viability, T/C [11]: 94.9%
viability, T/C [12]: 106%
viability, T/C [13]: 105%
viability, T/C [14]: 88.7%
viability, T/C [15]: 98.6%
viability, T/C [16]: 105%
viability, T/C [17]: 96.9%
viability, T/C [18]: 105%
viability, T/C [19]: 105%
viability, T/C [20]: 97.7%
viability, T/C [21]: 104%
viability, T/C [22]: 111%
viability, T/C [23]: 105%
viability, T/C [24]: 101%
viability, T/C [25]: 103%
viability, T/C [26]: 103%
viability, T/C [27]: 107%
viability, T/C [28]: 105%
viability, T/C [29]: 114%
viability, T/C [30]: 96.9%
viability, T/C [31]: 102%
viability, T/C [32]: 88.7%
viability, T/C [33]: 109%
viability, T/C [34]: 109%
viability, T/C [35]: 112%
viability, T/C [36]: 101%
